Experimental data reported in patent publication US9051351B2, “Hepatocyte growth factor mimics as therapeutic agents” (Washington State University, priority 2011, dated 2015).
Entries after “also recorded” stand apart in the source; their conditions may differ. Where a SMILES comes first, the peptide text is derived from it. [ ]: non-standard residue; d: D form. dNle = CCCC[C@@H](N)C(=O)O; Ahx = NCCCCCC(=O)O

Key:
human HGF = target: T1, human HGF (Homo sapiens, UniProt P14210); assay: HGF dimerization (PAGE, silver staining); assay type: biochemical; conditions: analog 10^−10 M, heparin, 30 minute incubation
T1 construct: purchased R&D Systems (Minneapolis, Minn.)
Method: HGF dimerization was assessed using PAGE followed by silver staining (Kawas et al., 2011). Human HGF at a concentration of 0.08 ng/μl with or without 6-AH analogs was incubated with heparin at a final concentration of 5 μg/ml. Loading buffer was then added to each sample and the mixture separated by native PAGE using gradient Criterion XT precast gels (4-12% Bis-Tris; Biorad Laboratories, Hercules, Calif.). Next the gel was silver stained for the detection of the HGF monomers and dimers. Bands were quantitated from digital images using a UVP phosphoimager (Upland, Calif.).

MDCK cells [1] = assay: HGF-dependent MDCK cell proliferation (MTT); assay type: cell-based, canine; conditions: analog 10^−10M, HGF 10 ng/ml, 4 days
Method: 5000 MDCK cells were seeded into the wells of a 96 well plates in 10% FBS DMEM. To induce cellular quiescence, the cells were serum deprived for 24 h prior to initiating the treatments. Following serum starvation, 10 ng/ml HGF alone and with various concentrations of 6-AH analogs or PBS vehicle were added to the media. The cells were allowed to grow under these conditions for 4 days with a daily addition of 6-AH analogs. On the fourth day, 1 mg/ml of […] (MTT, Sigma-Aldrich) prepared in PBS was added to the cells and incubated for 4 h. Dimethyl sulfoxide diluted in a 0.01M glycine buffer was added to solubilize the cell membranes and the absorbance of reduced MTT in the buffer was quantitated at 590 nm using a plate reader (Biotek Synergy 2, Winooski, Vt.). HGF-dependent proliferation was determined by subtracting the basal proliferation (in the absence of HGF) from total proliferation rates in groups containing HGF.

in vitro = conditions: male, rat, pH 7.38
hippocampal neurons [2] = assay: Dendritic spine counts (spinogenesis) in mRFP-β-actin transfected dissociated hippocampal neurons; assay type: cell-based, rat; conditions: HGF 10 ng/ml, Dihexa or Nle1-AngIV 10^−12 M
Method: Hippocampal neurons (2×10^5 cells per square cm) were cultured from P1 Sprague Dawley rats on plates coated with poly-L-lysine from Sigma (St. Louis, Mo.; molecular weight 300,000). […] Each experiment was repeated at least three times using independent culture preparations. […] Hippocampal neurons (2×10^5 cells per square centimeter) were cultured from P1-2 Sprague Dawley rats on plates coated with poly-L-lysine from Sigma (St. Louis, Mo.; molecular weight 300,000). Hippocampal neurons were maintained in Neurobasal A media from Invitrogen (Carlsbad, Calif.) supplemented with B27 from Invitrogen, 0.5 mM L-glutamine, and […] cytosine-D-arabinofuranoside from Sigma added at 2 days in vitro. Hippocampal neurons were then cultured a further 3-7 days, at which time they were either transfected or treated with various pharmacological reagents as described in the text or figure legends. Neurons were transfected with mRFP-β-actin on day in vitro 6 […] using LipofectAMINETM 2000 (Invitrogen) according to the manufacturer's protocol. […] On DIV7 the cells were treated with vehicle (H20) or peptides (as described in the text) added to media. […] Five 50 μm long segments of dendrite from at least 10 neurons per data point were analyzed for each data point reported. Each experiment was repeated at least three times using independent culture preparations. […] A target sequence for c-Met was designed using RNAi central design program (see the website located at […].edu/). The target sequence […] NO: 2) was inserted into pSUPER vector (Oligoengine, Seattle Wash.) which drives endogenous production of shRNA under the H1 promoter. The shRNA was transfected into cells using the lipofectamine method described above. Verification of receptor knockdown was done by creating a c-[…]-Myc tagged gene product using the Gateway cloning system (Invitrogen). The Met protein coding sequence was cloned from rat whole brain cDNA using primers obtained from Integrated DNA Technologies, Inc. The amplified product was gel purified and a band corresponding to 190 kDa band excised and cloned into a […] destination vector (Gateway). Hippocampal neurons (2×10^5 cells per square cm) were cultured from P1 Sprague Dawley rats on plates coated with poly-L-lysine from Sigma (St. Louis, Mo.; molecular weight […]).

hippocampal neurons [3] = assay: Immunocytochemistry: percent correlation of spines to synaptic markers; assay type: cell-based, rat; conditions: HGF 10 ng/ml, 5 days
Method: (§1) Transfected neurons were treated, fixed and stained. Briefly, cells were permeablized with 0.1% Triton X-100 detergent (Bio-Rad; Hercules, Calif.) for 10 minutes. An 8% bovine serum albumin (Intergen Company; Burlington, Mass.) in PBS was used to prevent non-specific binding for one hour at R.T.; Primary antibody incubations were at a 1:2500 dilution (see below) in 1% BSA in PBS at 4° C. overnight. Secondary antibody, 1:3000 Alexafluor 488 goat-anti-mouse (Invitrogen: Carlsbad, Calif.) was applied for two hours at room temperature. Coverslips were mounted with ProLong Gold anti-fade reagent (Invitrogen; Carlsbad, Calif.) and all washes were done with PBS. Imaging and analysis were performed as described above. For presynaptic excitatory transmission the VGLUT1 (Synaptic Systems, Goettingen, Germany) marker (Balschun, Moechars et al.) was employed and for general presynaptic transmission synapsin1 (Synaptic Systems, Goettingen, Germany) (Ferreira and Rapoport 2002) was applied. A postsynaptic function was established by PSD-95 (Milipore, Billerica, Mass.) (El-Husseini, Schnell et al. 2000). In each instance the total number of spines was counted for the treatment groups, control, Nle1-AngIV and Dihexa, to ensure an active phenotype. The total number of actin enriched spines adjacent to VGLUT1 or Synapsin were counted and converted to a percentage as the percent correlation of treatment-induced spines to presynaptic markers is a strong indicator of ability to transmit excitatory signals.
as §1, with “fixed and stained as previously described in Chapter two. Briefly, cells” for “fixed and stained. Briefly, cells”, “enriched spines (red) adjacent to” for “enriched spines adjacent to”
Transfected neurons were treated and fixed as described above. Following fixation, cells were rinsed in PBS and permeabilized with 0.1% Triton® X-100 detergent (Bin-Rad; Hercules, Calif.), followed by two rinses in PBS and blocked with 8% bovine serum albumin (Intergen Company; Burlington, Mass.) in PBS for 1 h. […]

c-Met receptor = assay: c-Met phosphorylation in acute adult hippocampal slices; assay type: cell-based, rat; conditions: 30 minutes
From the text: Adult Sprague-Dawley rats (250 g+) obtained from Harlan Laboratories (Ca, USA) were anesthetized with isofluorane (Vet One™, MWI, Meridian, Id., USA) and decapitated. The brain was rapidly removed and placed into ice-chilled artificial cerebrospinal fluid (aCSF) for approximately 30 s. Both hemispheres were separated by a mid-saggital cut and both hippocampi removed. Slices were sectioned cross- and length-wise (400 μm) to ensure penetrability of the drug, using a Mcllwain tissue chopper (Brinkmann, Gomshall, UK) and transferred to a gassed (95% O2/5% CO2) incubation chamber containing aCSF for 90 minutes at room temperature. Slices were transferred to fresh tubes, aCSF was removed by careful suctioning and replaced with aCSF containing vehicle (aCSF+aCSF), 100 ng/ml with carrier free adult recombinant Hepatocyte Growth Factor (HGF) (R and D Systems, MN, USA) in aCSF, 10^−10 M Hinge (Harding lab), […], 10^−10 M Dihexa (Harding lab) in aCSF, 10^−12 M Dihexa in aCSF or 50 ng/ml HGF+10^−12 M Dihexa in aCSF for 30 minutes at 37° C. with gentle rocking. aCSF was removed and the slices were lysed using RIPA buffer (Upstate/Milipore, Billerica, Mass.) and inhibitor Cocktails I and II (Sigma, St. Louis, Mo.), sonicated on ice and clarified by centrifugation for 30 minutes, 13,000 rpm at 4° C. The supernatant was removed from the pellet and stored at −80° C. or processed immediately for gel electrophoresis.
Protein concentration of the samples was quantified using the BCA method (Pierce, Rockford, Ill.) following the manufacturers protocol. Samples were added to SDS-PAGE buffer and boiled for 10 min. before loading onto a 4-12% Bis-Tris pre-cast gel (Invitrogen, Carlsbad, Calif.) for electrophoresis. Proteins were transferred onto PVDF membranes (Bio Rad, Hercules, Calif.) and blocked with AquaBlock™ (New England Biolabs, Ipswich, Mass.) for 1 hour at room temperature (RT). Primary antibody incubation was done in AquaBlock™ with rabbit anti-Met and […] phospho-Met (Tyr1234/1235) (1:1000, Cell Signaling Technology, Danvers, Mass.) overnight at 4° C. Alternating washes were done with PBS and PBST. Secondary antibody (IRDye) (Rockland, Gilbertsville, Pa.) incubations were done in AquaBlock™ for one hour at RT. Blots were imaged using LI-COR Odyssey Infrared Imaging System (LI-COR Biosciences, Lincoln, Nebr.).

MDCK cells [4] = assay: Inhibition of HGF-dependent scattering in MDCK cells; assay type: cell-based, canine; conditions: HGF 20 ng/ml, 48 h
Method: MDCK cells were grown to 100% confluency on the coverslips in six-well plates and washed twice with PBS. The confluent coverslips were then aseptically transferred to new six well plates containing 900 μl serum free DMEM. Norleual, Hinge peptide, and/or HGF (20 ng/ml) were added to appropriate wells. Control wells received PBS vehicle. Plates were incubated at 37° C. with 5% CO2 for 48 hours. Media was removed and cells were fixed with methanol. Cells were stained with Diff-Quik Wright-Giemsa (Dade-Behring, Newark, Del.) and digital images were taken. Coverslips were removed with forceps and more digital images were captured. Pixel quantification of images was achieved using Image J and statistics were performed using Prism 5 and InStat v.3.05.
MDCK cells were grown to 100% confluency on the coverslips in six-well plates and washed twice with PBS. The confluent coverslips were then aseptically transferred to new six well plates containing 900 μl serum free DMEM. Norleual, Hinge peptide, and/or HGF (20 ng/ml) were added to appropriate wells. Control wells received PBS vehicle. Plates were incubated at 37° C. with 5% CO2 for 48 h. Media was removed and cells were fixed with methanol. […] Pixel quantification of images was achieved using Image J and statistics were performed using Prism 5 and InStat v.3.05 (GraphPad; San Diego, Calif.).

T1 sequence (P14210 32-728): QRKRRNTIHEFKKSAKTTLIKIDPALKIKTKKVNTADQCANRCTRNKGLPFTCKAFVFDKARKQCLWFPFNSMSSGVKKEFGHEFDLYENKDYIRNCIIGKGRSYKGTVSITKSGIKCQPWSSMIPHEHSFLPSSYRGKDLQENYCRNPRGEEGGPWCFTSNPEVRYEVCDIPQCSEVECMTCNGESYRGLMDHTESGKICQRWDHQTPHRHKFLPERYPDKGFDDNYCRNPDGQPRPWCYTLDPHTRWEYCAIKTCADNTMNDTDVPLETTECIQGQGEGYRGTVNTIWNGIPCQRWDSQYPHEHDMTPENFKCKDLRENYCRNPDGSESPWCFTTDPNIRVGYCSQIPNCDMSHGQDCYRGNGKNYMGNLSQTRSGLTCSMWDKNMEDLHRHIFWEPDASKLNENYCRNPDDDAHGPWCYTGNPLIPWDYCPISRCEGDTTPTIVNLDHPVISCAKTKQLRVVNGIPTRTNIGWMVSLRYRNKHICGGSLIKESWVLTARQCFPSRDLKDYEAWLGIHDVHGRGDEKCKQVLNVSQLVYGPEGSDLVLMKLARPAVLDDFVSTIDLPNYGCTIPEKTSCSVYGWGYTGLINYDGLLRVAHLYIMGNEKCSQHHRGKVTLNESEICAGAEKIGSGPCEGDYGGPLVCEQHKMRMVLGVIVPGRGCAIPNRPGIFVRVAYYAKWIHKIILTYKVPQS

Compound: CCCC[C@@H](N)C(=O)N[C@@H](Cc1c[nH]c2ccccc12)C(=O)N[C@H](C(=O)NCCCCCC(N)=O)[C@@H](C)CC [D-Nle-Trp-Ile-NH—(CH2)5—CONH2] (H-[dNle]WI[Ahx]-NH2)
- inhibition of HGF dimerization (human HGF): intermediate inhibition of dimerization
- inhibition of HGF dimerization (human HGF; listed as Trp): statistically different than the HGF treated group
- inhibition of HGF-dependent MDCK cell proliferation (MDCK cells [1]): showed inhibitory activity, albeit less than that observed with the most potent analogs

Compound: CN1C(C(=O)Nc2ccccn2)=C(O)c2ccccc2S1(=O)=O [piroxicam, reference compound]
- microsomal CLint at 5 µM (in vitro; microsomes): 60.2 µL/min/mg

Compound: HGF: carrier free adult recombinant Hepatocyte Growth Factor (R and D Systems)
- mean spine numbers per 50 μm dendrite length (hippocampal neurons [2]; neurons transfected with mRFP-β-actin alone, 48 hours): 20.6 spines per 50 μm dendrite leng
- mean spine numbers per 50 μm dendrite length (hippocampal neurons [2]; neurons transfected with mRFP-β-actin and shMet (c-Met knock-down)): 12.4 spines per 50 μm dendrite leng
- correlation between Synapsin and postsynaptic actin-enriched spines (hippocampal neurons [3]): 98%
- c-Met phosphorylation vs vehicle (aCSF) (c-Met receptor; saturating doses: HGF 100 ng/ml, Dihexa 10^−10 M): increased c-Met phosphorylation; also recorded: effectively augment c-Met phosphorylation
- c-Met phosphorylation vs vehicle (aCSF) (c-Met receptor; sub-threshold doses: HGF 50 ng/ml, Dihexa 10^−12 M): not statistically different from control treated slices; also recorded: did not significantly increase c-Met receptor phosphorylation

Compound: CCCC[C@@H](N)C(=O)N[C@@H](CCSC)C(=O)N[C@H](C(=O)NCCCCCC(N)=O)[C@@H](C)CC [D-Nle-Met-Ile-NH—(CH2)5—CONH2] (H-[dNle]MI[Ahx]-NH2)
- inhibition of HGF dimerization (human HGF): unable to block dimerization at the concentration tested
- inhibition of HGF-dependent MDCK cell scattering (MDCK cells [4]): The HGF and HGF+Met groups were not different

Compound: CCOc1ccc2ccc(=O)oc2c1 [7-ethoxycoumarin, reference compound]
- microsomal CLint at 5 µM (in vitro; pooled liver microsomes): 137 µL/min/mg
